Results: US8304236B2, “Modified biotin-binding protein” (Japan Tobacco Inc., priority 2008, dated 2012)
Like-named read-outs stand apart in the source and are kept apart here.

Assays:
[1] = molecular target: tamavidin 2 (TM2) variant TM2 K33TK37AR104E, SEQ ID NO: 14 (Pleurotus cornucopiae, UniProt B9A0T7, K33T/K37A/R104E); assay: Biacore 3000 biotin-binding test of low-pI TM2 (Example 1); settings: BSA-LCLC-Biotin (30.5 Å) immobilized; 25° C.
Method: (§1) HBS-EP (Biacore) was used as a running buffer, and each low-pI TM2 (40 μL) was injected at 25° C. and a flow rate of 20 μL/min for 2 minutes.
(§2) From the resulting sensorgrams, the binding rate constant (ka), the dissociation rate constant (kd), and the dissociation constant (KD) were calculated using an analysis software, BIAevaluation version 4.1.

[2] = molecular target: T1, tamavidin 2 (TM2), wild type, SEQ ID NO: 2, Pleurotus cornucopiae (Pleurotus cornucopiae, UniProt B9A0T7); assay: as above; settings: 25° C.
T1 sequence (B9A0T7 1-141): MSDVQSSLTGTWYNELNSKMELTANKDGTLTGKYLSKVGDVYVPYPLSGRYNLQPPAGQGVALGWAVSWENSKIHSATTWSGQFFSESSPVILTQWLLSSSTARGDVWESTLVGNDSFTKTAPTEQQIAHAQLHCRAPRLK
Method: as §1, §2

[3] = molecular target: tamavidin 2 (TM2) variant TM2 R104E, SEQ ID NO: 8 (Pleurotus cornucopiae, UniProt B9A0T7, R104E); assay: as above; settings: BSA-LCLC-Biotin (30.5 Å) immobilized; 25° C.
Method: (3) a TM2 mutant in which arginine at position 104 was replaced with glutamic acid (hereinafter referred to as “TM2 R104E; its nucleotide sequence is listed in SEQ ID NO: 7, and the amino acid sequence in SEQ ID NO: 8);
as §1, §2

[4] = molecular target: tamavidin 2 (TM2) variant TM2 K141E, SEQ ID NO: 10 (Pleurotus cornucopiae, UniProt B9A0T7, K141E); assay: as above; settings: BSA-LCLC-Biotin (30.5 Å) immobilized; 25° C.
Method: (4) a TM2 mutant in which lysine at position 141 was replaced with glutamic acid (hereinafter referred to as “TM2 K141E; its nucleotide sequence is listed in SEQ ID NO: 9, and the amino acid sequence in SEQ ID NO: 10);
as §1, §2

[5] = molecular target: tamavidin 2 (TM2) variant TM2 K33TK37A, SEQ ID NO: 12 (Pleurotus cornucopiae, UniProt B9A0T7, K33T/K37A); assay: as above; settings: BSA-LCLC-Biotin (30.5 Å) immobilized; 25° C.
Method: (5) a TM2 mutant in which lysine at position 33 was replaced with threonine, and lysine at position 37 was replaced with alanine (hereinafter referred to as “TM2 K33TK37A”; its nucleotide sequence is listed in SEQ ID NO: 11, and the amino acid sequence in SEQ ID NO: 12);
as §1, §2

[6] = molecular target: tamavidin 2 (TM2) variant TM2 K26A, SEQ ID NO: 4 (Pleurotus cornucopiae, UniProt B9A0T7, K26A); assay: as above; settings: SA-LC-Biotin (22.4 Å) immobilized; 25° C.
Method: (1) a TM2 mutant in which lysine at position 26 was replaced with alanine (hereinafter referred to as “TM2 K26A”; its nucleotide sequence is listed in SEQ ID NO: 3 and the amino acid sequence in SEQ ID NO: 4);
as §1, §2

[7] = molecular target: tamavidin 2 (TM2) variant TM2 K73Q, SEQ ID NO: 6 (Pleurotus cornucopiae, UniProt B9A0T7, K73Q); assay: as above; settings: SA-LC-Biotin (22.4 Å) immobilized; 25° C.
Method: (2) a TM2 mutant in which lysine at position 73 was replaced with glutamine (hereinafter referred to as “TM2 K73Q”; its nucleotide sequence is listed in SEQ ID NO: 5, and the amino acid sequence in SEQ ID NO: 6);
as §1, §2

[8] = molecular target: tamavidin 2 (TM2) variant TM2 R104EK141E, SEQ ID NO: 16 (Pleurotus cornucopiae, UniProt B9A0T7, K141E/R104E); assay: as above; settings: SA-LC-Biotin (22.4 Å) immobilized; 25° C.
Method: (7) a TM2 mutant in which arginine at position 104 was replaced with glutamic acid, and lysine at position 141 was replaced with glutamic acid (hereinafter referred to as “TM2 R104EK141E”; its nucleotide sequence is listed in SEQ ID NO: 15, and the amino acid sequence in SEQ ID NO: 16).
as §1, §2

[9] = test system: tamavidin 2 (TM2) variant TM2 D40N, SEQ ID NO: 20; assay: Biacore 3000 biotin-binding test (Example 2); set-up: species or system Pleurotus cornucopiae; settings: Biotin-LC-BSA
Method: As described above, a TM2 mutant in which aspartic acid at position 40 was replaced with asparagine (hereinafter referred to as “TM2 D40N”; its nucleotide sequence SEQ ID NO: 19, and the amino acid sequence in SEQ ID NO: 20) was constructed.
The solution was put into a dialysis tube (MWCO 6-8,000) and was dialyzed with 50 mM sodium carbonate (pH 6.7) at 4° C. overnight.
The amount for immobilization was adjusted to about 200 RU.
Accordingly, seven step measurement (3.125, 6.25, […], 25, 50, 100, and 200 nM) was conducted from the lowest concentration, without recycling steps. […] The measurement was performed at 25° C. The resulting sensorgrams were subjected to reaction kinetics analysis using analysis software BIAevaluation ver. 4.1 with a 1:1 binding model to calculate the binding rate constant (ka) and the dissociation rate constant (kd). The dissociation constant (KD) was determined from kd/ka. In the case where no recycling step is employed, the Rmax (maximum amount of binding analyte) decreases at each measurement. Accordingly, in the analysis, the Rmax was calculated by conducting local fitting for each concentration, and only the data of analyte concentrations that were approximated to the 1:1 binding model was employed.

[10] = molecular target: T1, tamavidin 2 (TM2), wild type, SEQ ID NO: 2, Pleurotus cornucopiae; assay: Biacore 3000 biotin binding test (Example 3); settings: Biotin-BSA (22.4 Å) immobilized
Method: TM2 and HALU TM2 used as analytes were prepared by purification with 2-iminobiotin agarose in accordance with a common method and dialysis with 20MM KPi (pH 7) overnight. The analytes were each adjusted to about 50 μg/mL in 10 mM acetate buffer (pH 5, Biacore).
The immobilization of the ligand and measurement and analysis of specific interaction with the analytes were conducted as in paragraph 2-7-2).

[11] = molecular target: T1, tamavidin 2 (TM2), wild type, SEQ ID NO: 2, Pleurotus cornucopiae; settings: WO2008/081938 A1; cited from earlier work
streptavidin = settings: similarly measured; WO2008/081938 A1; cited from earlier work

Chain of tamavidin 2 (TM2) variant TM2 R104EK141E, SEQ ID NO: 16 (B9A0T7 entry or part of it R104E/K141E): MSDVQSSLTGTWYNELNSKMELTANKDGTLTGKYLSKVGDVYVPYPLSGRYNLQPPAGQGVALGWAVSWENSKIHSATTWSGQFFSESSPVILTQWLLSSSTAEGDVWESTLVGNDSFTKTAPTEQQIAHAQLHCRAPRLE
Chain of tamavidin 2 (TM2) variant TM2 K26A, SEQ ID NO: 4 (B9A0T7 entry or part of it K26A): as the sequence (B9A0T7 entry or part of it R104E/K141E) above, with K26A, E104R, E141K counted along it
Chain of tamavidin 2 (TM2) variant TM2 K33TK37AR104E, SEQ ID NO: 14 (B9A0T7 entry or part of it K33T/K37A/R104E): as the sequence (B9A0T7 entry or part of it R104E/K141E) above, with K33T, K37A, E141K counted along it
Chain of tamavidin 2 (TM2) variant TM2 K141E, SEQ ID NO: 10 (B9A0T7 entry or part of it K141E): as the sequence (B9A0T7 entry or part of it R104E/K141E) above, with E104R counted along it
Chain of tamavidin 2 (TM2) variant TM2 K33TK37A, SEQ ID NO: 12 (B9A0T7 entry or part of it K33T/K37A): as the sequence (B9A0T7 entry or part of it R104E/K141E) above, with K33T, K37A, E104R, E141K counted along it
Chain of tamavidin 2 (TM2) variant TM2 K73Q, SEQ ID NO: 6 (B9A0T7 entry or part of it K73Q): as the sequence (B9A0T7 entry or part of it R104E/K141E) above, with K73Q, E104R, E141K counted along it
Chain of tamavidin 2 (TM2) variant TM2 R104E, SEQ ID NO: 8 (B9A0T7 entry or part of it R104E): as the sequence (B9A0T7 entry or part of it R104E/K141E) above, with E141K counted along it

O=C(O)CCCC[C@@H]1SC[C@@H]2NC(=O)N[C@@H]21 [biotin, D-[(+)-cis-hexahydro-2-oxo-1H-thieno-(3,4)-imidazole-4-valerate]]
binding rate constant (ka) [1]: 6.3 × 10^5
binding rate constant (ka) ([2]; BSA-LCLC-Biotin (30.5 Å) immobilized): 9.2 × 10^5
binding rate constant (ka) ([2]; SA-LC-Biotin (22.4 Å) immobilized): 9.9 × 10^5
binding rate constant (ka) [3]: 5.8 × 10^5
binding rate constant (ka) [4]: 5.8 × 10^5
binding rate constant (ka) [5]: 2.5 × 10^5
binding rate constant (ka) [6]: 5.0 × 10^5
binding rate constant (ka) [7]: 5.9 × 10^5
binding rate constant (ka) [8]: 1.2 × 10^6
change of binding rate constant (ka) compared to TM2 [9]: increased
change of dissociation rate constant (kd) compared to TM2 [9]: decreased
binding rate constant (ka) [10]: 9.9 × 10^5
binding rate constant (ka) [11]: 919000 M⁻¹ s⁻¹
dissociation rate constant (kd) [11]: 6.83e-06 s⁻¹
binding rate constant (ka) (streptavidin): 2.28e+06 M⁻¹ s⁻¹
dissociation rate constant (kd) (streptavidin): 2.52e-06 s⁻¹
